{
  "source": "paper PMC9841525",
  "about": "“Chemical Blockage of the Mitochondrial Rhomboid Protease PARL by Novel Ketoamide Inhibitors Reveals Its Role in PINK1/Parkin-Dependent Mitophagy” (Journal of Medicinal Chemistry, 2022)",
  "key": {"[1]": {"test_system": "Parkin", "assay": "Parkin recruitment to mitochondria, subcellular fractionation and immunoblot", "type": "cell-based, human", "conditions": "HEK293 T-REx PINK1 cells, HA-Parkin-IRES-GFP; 5 μM compound 5, CCCP 10 μM or Antimycin A 30 μM", "method": "Inducible stable Flp-In HEK293 T-REx cells expressing PINK1 were described previously.[33] HEK293 T-REx PINK1 and HEK293T cells were grown in DMEM (Gibco) supplemented with 10% (v/v) fetal bovine serum (ThermoFisher), 1% (v/v) GlutaMAX (Gibco), 1% (v/v) sodium pyruvate (Gibco), 125 μg/mL hygromycin (Invitrogen), and 10 μg/mL blasticidin (Gibco) or DMEM supplemented with 10% (v/v) fetal bovine serum, respectively, at 37 °C in 5% (v/v) CO2. For microscopy, cells were seeded on poly-L-lysine (Sigma)-coated slides. Transient plasmid transfections were performed using 25 kDa linear polyethylenimine (Polysciences). Plasmid (100 ng) encoding HA-Parkin-IRES-GFP, mito-mCherry or Parkin-mEGFP, or 500 ng plasmid encoding PGAM5-FLAG were used per 6-well. Total transfected DNA was 2 μg/well. For siRNA transfection, 2 × 10^5 cells were seeded per 6-well and on the next day transfected with 20 nM siRNA-oligonucleotide using lipofectamine RNAiMAX (ThermoFisher). Cells were analyzed 27 h post-transfection or five days post-siRNA-transfection. HEK293 T-REx PINK1 cells were induced with 0.3 μg/mL doxycycline for 24 h before further processing. Hoechst staining (1 μg/mL) was done immediately before adding treatment to the cells. Treatments were administered for the indicated times before processing; CCCP (Sigma) was always used as 10 μM for 3 h and Antimycin A (Sigma) as 30 μM for 3 h.\nUnless mentioned otherwise, all steps were performed at 4 °C. For subcellular fractionation to separate cellular content into cytosolic and mitochondrial fractions, cells were washed with PBS, harvested in PBS-EDTA (1 mM EDTA, 0.2 g/L D-glucose), and centrifuged at 500 × g for 5 min. […]\nFor immunoblot analysis in other cases, cells were either processed as described above or washed with PBS and directly lysed with Tris-glycine SDS-PAGE sample buffer and heated for 15 min at 65 °C. […] For quantification, ImageJ was used (http://rsb.info.nih.gov/ij/). […]"}, "[2]": {"test_system": "HEK293T cells", "assay": "JC-1 mitochondrial membrane potential assay", "type": "cell-based, human", "conditions": "5 µM compound 5 or CCCP, at least three hours, compared to DMSO", "method": "Staining of cells for the determination of mitochondrial membrane potential was carried out with the JC-1 mitochondrial staining kit (Sigma-Aldrich) according to the kit’s instructions; stained cells were immediately taken to live cell imaging.\nFor fixation, cells were incubated for 15 min with 4% formaldehyde (16% formaldehyde diluted in PBS, Thermo Scientific) and washed in PBS. The cover glasses were mounted with Fluoromount-G (Southern Biotech) on microscope slides. All microscopy was performed on an LSM 780 system (Carl Zeiss) with a Plan-APOCHROMAT 63× 1.4NA oil objective (Carl Zeiss) and pinhole settings of 1 AU with the Zeiss ZEN 2010 software. Image processing and analysis was performed using ImageJ (http://rsb.info.nih.gov/ij/). […] Parkin recruitment events to the mitochondria were counted by hand throughout each z-stack and cell. […] JC-1 images were handled as summed intensity z-stack projections, as well as subjected to flatfield correction and subtraction of background before measuring the fluorescence levels normalized to the number of cell nuclei. The fluorescence intensity ratio between the red and green signal was calculated and compared to DMSO as a ratio of 1. Data were evaluated using Excel and GraphPad Prism 6."}},
  "note": "“Also recorded” adds a separate entry of the source. *1 amine or outer side, *2 acyl side, *3 side chain or, on linkers, in order; H or OH if unused. Where a SMILES comes first, the peptide text is derived from it. [ ]: non-standard residue; d: D form. The star is where a group is joined. NH(4-phenylbutyl) = c1ccc(CCCCN*)cc1; X1 = C[C@H](N[*:1])C(=O)C(=O)[*:2]",
  "data": [
    {"smiles": "CC(=O)N[C@@H](C)C(=O)N[C@H](C(=O)N[C@@H](Cc1ccccc1)C(=O)N[C@@H](CC(C)C)C(=O)N[C@@H](C)C(=O)C(=O)NCCCCc1ccccc1)C(C)C", "note": "[compound 5] (Ac-AVFL[X1]-{NH(4-phenylbutyl)})", "values": [
      {"measurement": "Parkin recruitment to the mitochondrial fraction", "setting": "[1]", "value": "Parkin recruitment to the mitochondrial fraction, albeit in a lower quantity than in the two chemically induced stress conditions"},
      {"measurement": "Effect on mitochondrial membrane potential (JC-1 aggregate to monomer ratio)", "setting": "[2]", "value": "does not depolarize; also recorded: does not significantly alter the membrane potential"}
    ]}
  ]
}
